In ChEMBL document CHEMBL1152734, “Novel E. coli beta-ketoacyl-acyl carrier protein synthase III inhibitors as targeted antibiotics” (Bioorg Med Chem, 2009):
Converted amounts (≈) assume the structure as drawn. The source made the active and inactive calls. The calls are words filed in the database; no cut-off is given here.

Experiments:
Escherichia coli K-12 = test: Binding affinity to Escherichia coli K12 KAS 3 expressed in Escherichia coli BL21 by STD-NMR spectroscopy
[1] = molecular target: T1, Beta-ketoacyl-[acyl-carrier-protein] synthase III (Escherichia coli K-12, UniProt P0A6R0); test: Binding affinity to Escherichia coli K12 KAS 3 expressed in Escherichia coli BL21 by fluorescence quenching analysis
T1 sequence (P0A6R0 whole entry): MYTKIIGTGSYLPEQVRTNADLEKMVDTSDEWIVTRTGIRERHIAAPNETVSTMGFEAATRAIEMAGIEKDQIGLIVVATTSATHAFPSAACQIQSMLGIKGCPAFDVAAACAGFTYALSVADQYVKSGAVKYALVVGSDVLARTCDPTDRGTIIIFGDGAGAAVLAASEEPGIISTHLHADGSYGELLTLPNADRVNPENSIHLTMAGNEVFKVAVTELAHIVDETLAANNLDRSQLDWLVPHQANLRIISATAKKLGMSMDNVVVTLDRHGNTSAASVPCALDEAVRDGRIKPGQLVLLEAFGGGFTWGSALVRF

Staphylococcus aureus [2] = test: Antimicrobial activity against Staphylococcus aureus KCTC 1621 after 20 hrs by twofold serial broth dilution method; format: functional; conditions: KCTC 1621, 20 h
Enterococcus faecalis = test: Antimicrobial activity against Enterococcus faecalis KCTC 2011 after 20 hrs by twofold serial broth dilution method; format: functional; conditions: KCTC 2011, 20 h
Klebsiella pneumoniae = test: Antimicrobial activity against Klebsiella pneumoniae KCTC 2242 after 20 hrs by twofold serial broth dilution method; format: functional; conditions: KCTC 2242, 20 h
Staphylococcus aureus [3] = test: Antimicrobial activity against methicillin-resistant Staphylococcus aureus CCARM 3114 after 20 hrs by twofold serial broth dilution method; format: functional; conditions: CCARM 3114, 20 h
Escherichia coli = test: Antimicrobial activity against Escherichia coli KCTC 1682 after 20 hrs by twofold serial broth dilution method; format: functional; conditions: KCTC 1682, 20 h

Row | Compound | Activity (Escherichia coli K-12) | Kd [1] [µM] | MIC (Staphylococcus aureus [2]) [µg/mL] | MIC (Enterococcus faecalis) [µg/mL] | MIC (Klebsiella pneumoniae) [µg/mL] | MIC (Staphylococcus aureus [3]) [µg/mL] | MIC (Escherichia coli) [µg/mL]
1 | CC1CN(c2ccc(O)c(C(=O)O)c2)C(=S)NC1=O (stereo unspecified) | Active | > 1000 | – | – | – | – | –
2 | CCCc1cc(=O)oc2cc(OC(=O)c3ccccc3Cl)ccc12 | inactive | – | – | – | – | – | –
3 | C=C/C(C)=C/[C@@]1(C)SC(=O)C(C)=C1O [THIOLACTOMYCIN] | Active | 121 | 256 (≈ 1220 µM) | 256 (≈ 1220 µM) | 256 (≈ 1220 µM) | 128 (≈ 609 µM) | 128 (≈ 609 µM)
4 | CC(C)(CC(=O)O)CC(=O)NCCN1CCNC1=O | Active | > 1000 | – | – | – | – | –
5 | COc1ccc2c(c1OC)C(=O)OC2C(C)C(=O)c1ccc(O)c(O)c1 (stereo unspecified) | Active | 1.22 | > 1020 | > 1020 | > 1020 | > 1020 | > 1020
6 | NS(=O)(=O)c1cccc(NC(=O)Nc2cccc(S(N)(=O)=O)c2)c1 | inactive | – | – | – | – | – | –
7 | CC1(O)N(CCC(N)=O)C(=O)OC12CCCCC2 (stereo unspecified) | inactive | – | – | – | – | – | –
8 | Cc1c(C(=O)O)cc(C(C)(C)C)n1CCSCc1c(F)cccc1Cl | inactive | – | – | – | – | – | –
9 | Cc1cc(C)nc(NS(=O)(=O)c2ccc(NC(=O)c3sc4ccccc4c3Cl)cc2)n1 | inactive | – | – | – | – | – | –
10 | C=CCn1c(SCC(=O)Nc2ccc(S(N)(=O)=O)cc2)nnc1-c1ccc(Cl)cc1 | inactive | – | – | – | – | – | –
11 | COc1ccc(NC(=O)CC(CC(=O)O)c2ccccc2)cc1 (stereo unspecified) | inactive | – | – | – | – | – | –
12 | COc1ccc2c(c1)CCC/C2=N/Nc1nc(C(=O)NN)cs1 | inactive | – | – | – | – | – | –
13 | Cn1ncc2c(Nc3ccccc3)nc(NCCCO)nc21 | Active | 141 | – | – | – | – | –
14 | O=C(O)c1cc(NC(=O)c2ccccc2[N+](=O)[O-])ccc1O | Active | > 1000 | – | – | – | – | –
15 | C/C(=N\Nc1nc(C)cs1)c1cccc(O)c1 | Active | > 1000 | 256 (≈ 1040 µM) | 256 (≈ 1040 µM) | > 1020 | 256 (≈ 1040 µM) | > 1020
16 | C=CCSC1Nn2c(nnc(C)c2=O)S1 (stereo unspecified) | Active | > 1000 | – | – | – | – | –
17 | Oc1ccc(/C=N/C2CCCCC2)c(O)c1 | Active | 0.02 | 256 (≈ 1170 µM) | 256 (≈ 1170 µM) | 256 (≈ 1170 µM) | 128 (≈ 584 µM) | 128 (≈ 584 µM)
